Experimental data reported in paper PMC8016998, “Identification of potential therapeutic antimicrobial peptides against Acinetobacter baumannii in a mouse model of pneumonia” (Scientific Reports, 2021).
No end group written: not given here.

Experiments:
[1] = system: MDRAB clinical strain J49; type: cell-based, Acinetobacter baumannii; conditions: 24 h
Procedure: (§1) MBC were determined by extending the MIC procedure in sterilized 96-well polypropylene microtiter plates according to the broth microdilution guidelines of the Clinical and Laboratory Standards Institute with some modification[47]. […] In addition, 10 µL was drawn from each well with no visible turbidity onto LB agar plates and incubated for 24 h at 37 °C. The lowest concentration showing no visible growth on agar subculture was used as the MBC value. All experiments were performed in triplicate.

[2] = system: MDRAB clinical strain D29; type: cell-based, Acinetobacter baumannii; conditions: 24 h
[3] = system: MDRAB clinical strain AF12; type: cell-based, Acinetobacter baumannii; conditions: 24 h
Procedure: as §1

[4] = system: MDRAB clinical strain AS40; type: cell-based, Acinetobacter baumannii; conditions: 24 h
[5] = system: MDRAB clinical strain AE5; type: cell-based, Acinetobacter baumannii; conditions: 24 h
Procedure: as §1

[6] = system: MDRAB clinical strain L87; type: cell-based, Acinetobacter baumannii; conditions: 24 h
[7] = system: MDRAB clinical strain AE6; type: cell-based, Acinetobacter baumannii; conditions: 24 h
Procedure: as §1

[8] = system: MDRAB clinical strain W11; type: cell-based, Acinetobacter baumannii; conditions: 24 h
Procedure: as §1

[9] = system: MDRAB clinical strain AG51; type: cell-based, Acinetobacter baumannii; conditions: 24 h
[10] = system: MDRAB clinical strain U95; type: cell-based, Acinetobacter baumannii; conditions: 24 h
Procedure: as §1

[11] = system: MDRAB clinical strain Y92; type: cell-based, Acinetobacter baumannii; conditions: 24 h
[12] = system: MDRAB clinical strain AF11; type: cell-based, Acinetobacter baumannii; conditions: 24 h
[13] = system: MDRAB clinical strain AF93; type: cell-based, Acinetobacter baumannii; conditions: 24 h
[14] = system: MDRAB clinical strain U80; type: cell-based, Acinetobacter baumannii; conditions: 24 h
[15] = system: Acinetobacter baumannii 19,606; type: cell-based; conditions: 19,606, 24 h
[16] = system: MDRAB clinical strain AZ93; type: cell-based, Acinetobacter baumannii; conditions: 24 h
Procedure: as §1

[17] = system: Acinetobacter baumannii 17,978; type: cell-based; conditions: 17,978, 24 h;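 note: CLSI broth microdilution in 96-well polypropylene plates, MBC taken as lowest concentration giving no growth when clear wells were subcultured on LB agar for 24 h at 37 °C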
Procedure: as §1

[18] = system: MDRAB clinical strain AO80; type: cell-based, Acinetobacter baumannii; conditions: 24 h
[19] = system: MDRAB clinical strain K2; type: cell-based, Acinetobacter baumannii; conditions: 24 h
Procedure: as §1

[20] = system: MDRAB clinical strains; type: cell-based, Acinetobacter baumannii; conditions: 24 h
Procedure: as §1

[21] = system: MDRAB clinical strain AN10; type: cell-based, Acinetobacter baumannii; conditions: 24 h
Procedure: as §1

[22] = system: MDRAB clinical strain AL87; type: cell-based, Acinetobacter baumannii; conditions: 24 h
Procedure: as §1

[23] = system: MDRAB clinical strain AK29; type: cell-based, Acinetobacter baumannii; conditions: 24 h
[24] = system: MDRAB clinical strain O59; type: cell-based, Acinetobacter baumannii; conditions: 24 h
[25] = system: MDRAB clinical strain AK61; type: cell-based, Acinetobacter baumannii; conditions: 24 h
Procedure: as §1

Question: For “GWGSFFKKAAHVGKHVGKAALTHYL-NH2 [Pleurocidin]”, which MBC [1] is on record?
Answer: 16 µg/mL

Question: And the MIC [1]?
Answer: 16 µg/mL

Question: And the MBC [2]?
Answer: 32 µg/mL

Question: And the MIC [2]?
Answer: 16 µg/mL

Question: What about the MBC [3] of the same substance?
Answer: 8 µg/mL

Question: And the MIC [3]?
Answer: 8 µg/mL

Question: And the MBC [4]?
Answer: 8 µg/mL

Question: And the MIC [4]?
Answer: 8 µg/mL

Question: What about the MBC [5] of the same substance?
Answer: 16 µg/mL

Question: What about the MIC [5] of the same substance?
Answer: 16 µg/mL

Question: And the MBC [6]?
Answer: 32 µg/mL

Question: What about the MIC [6] of the same substance?
Answer: 32 µg/mL

Question: And the MBC [7]?
Answer: 16 µg/mL

Question: And the MIC [7]?
Answer: 16 µg/mL

Question: And the MBC [8]?
Answer: 16 µg/mL

Question: What about the MIC [8] of the same substance?
Answer: 16 µg/mL

Question: And the MBC [9]?
Answer: 8 µg/mL

Question: And the MIC [9]?
Answer: 8 µg/mL

Question: And the MBC [10]?
Answer: 32 µg/mL

Question: And the MIC [10]?
Answer: 32 µg/mL

Question: What about the MBC [11] of the same substance?
Answer: 8 µg/mL

Question: And the MIC [11]?
Answer: 8 µg/mL

Question: And the MBC [12]?
Answer: 16 µg/mL

Question: What about the MIC [12] of the same substance?
Answer: 8 µg/mL

Question: What about the MBC [13] of the same substance?
Answer: 16 µg/mL

Question: What about the MIC [13] of the same substance?
Answer: 8 µg/mL

Question: What about the MBC [14] of the same substance?
Answer: 16 µg/mL

Question: What about the MIC [14] of the same substance?
Answer: 16 µg/mL

Question: And the MBC [15]?
Answer: 16 µg/mL

Question: What about the MIC [15] of the same substance?
Answer: 16 µg/mL

Question: And the MBC [16]?
Answer: 8 µg/mL

Question: What about the MIC [16] of the same substance?
Answer: 8 µg/mL

Question: And the MBC [17]?
Answer: 16 µg/mL

Question: And the MIC [17]?
Answer: 16 µg/mL

Question: What about the MBC [18] of the same substance?
Answer: 8 µg/mL

Question: What about the MIC [18] of the same substance?
Answer: 8 µg/mL

Question: What about the MBC [19] of the same substance?
Answer: 32 µg/mL

Question: And the MIC [19]?
Answer: 16 µg/mL

Question: And the MBC [20]?
Answer: 8 to 32 µg/mL

Question: And the MIC [20]?
Answer: 8 to 32 µg/mL

Question: What about the MBC [21] of the same substance?
Answer: 16 µg/mL

Question: What about the MIC [21] of the same substance?
Answer: 16 µg/mL

Question: And the MBC [22]?
Answer: 8 µg/mL

Question: And the MIC [22]?
Answer: 8 µg/mL

Question: And the MBC [23]?
Answer: 16 µg/mL

Question: What about the MIC [23] of the same substance?
Answer: 8 µg/mL

Question: And the MBC [24]?
Answer: 16 µg/mL

Question: And the MIC [24]?
Answer: 16 µg/mL

Question: And the MBC [25]?
Answer: 16 µg/mL

Question: What about the MIC [25] of the same substance?
Answer: 16 µg/mL

Question: With GWKKWFNRAKKVGKTVGGLAVDHYL-NH2 [NRC12] as the substance, how does the MBC [1] read?
Answer: 16 µg/mL

Question: What about the MIC [1] of the same substance?
Answer: 16 µg/mL

Question: And the MBC [2]?
Answer: 16 µg/mL

Question: What about the MIC [2] of the same substance?
Answer: 16 µg/mL

Question: What about the MBC [3] of the same substance?
Answer: 16 µg/mL

Question: And the MIC [3]?
Answer: 8 µg/mL

Question: What about the MBC [4] of the same substance?
Answer: 32 µg/mL

Question: What about the MIC [4] of the same substance?
Answer: 32 µg/mL

Question: What about the MBC [5] of the same substance?
Answer: 16 µg/mL

Question: What about the MIC [5] of the same substance?
Answer: 16 µg/mL

Question: And the MBC [6]?
Answer: 32 µg/mL

Question: What about the MIC [6] of the same substance?
Answer: 32 µg/mL

Question: What about the MBC [7] of the same substance?
Answer: 16 µg/mL

Question: What about the MIC [7] of the same substance?
Answer: 16 µg/mL

Question: And the MBC [8]?
Answer: 16 µg/mL

Question: And the MIC [8]?
Answer: 16 µg/mL

Question: And the MBC [9]?
Answer: 8 µg/mL

Question: And the MIC [9]?
Answer: 8 µg/mL

Question: What about the MBC [10] of the same substance?
Answer: 32 µg/mL

Question: What about the MIC [10] of the same substance?
Answer: 32 µg/mL

Question: What about the MBC [11] of the same substance?
Answer: 16 µg/mL

Question: And the MIC [11]?
Answer: 16 µg/mL

Question: What about the MBC [12] of the same substance?
Answer: 16 µg/mL

Question: What about the MIC [12] of the same substance?
Answer: 16 µg/mL

Question: And the MBC [13]?
Answer: 16 µg/mL

Question: What about the MIC [13] of the same substance?
Answer: 16 µg/mL

Question: And the MBC [14]?
Answer: 32 µg/mL

Question: What about the MIC [14] of the same substance?
Answer: 32 µg/mL

Question: What about the MBC [15] of the same substance?
Answer: 16 µg/mL

Question: What about the MIC [15] of the same substance?
Answer: 16 µg/mL

Question: What about the MBC [16] of the same substance?
Answer: 32 µg/mL

Question: What about the MIC [16] of the same substance?
Answer: 32 µg/mL

Question: And the MBC [17]?
Answer: 16 µg/mL

Question: What about the MIC [17] of the same substance?
Answer: 16 µg/mL

Question: And the MBC [18]?
Answer: 32 µg/mL

Question: What about the MIC [18] of the same substance?
Answer: 32 µg/mL

Question: And the MBC [19]?
Answer: 32 µg/mL

Question: And the MIC [19]?
Answer: 16 µg/mL

Question: What about the MBC [20] of the same substance?
Answer: 8 to 32 µg/mL

Question: And the MIC [20]?
Answer: 8 to 32 µg/mL

Question: And the MBC [21]?
Answer: 8 µg/mL

Question: What about the MIC [21] of the same substance?
Answer: 8 µg/mL

Question: And the MBC [22]?
Answer: 8 µg/mL

Question: What about the MIC [22] of the same substance?
Answer: 8 µg/mL

Question: And the MBC [23]?
Answer: 8 µg/mL

Question: And the MIC [23]?
Answer: 8 µg/mL

Question: And the MBC [24]?
Answer: 32 µg/mL

Question: And the MIC [24]?
Answer: 32 µg/mL

Question: And the MBC [25]?
Answer: 32 µg/mL

Question: And the MIC [25]?
Answer: 32 µg/mL

Question: Which results are given for GYNYAKKLANLAKKFANALW-NH2 [GW-H1a]?
Answer: MBC [1]: 8 µg/mL; MIC [1]: 8 µg/mL; MBC [2]: 32 µg/mL; MIC [2]: 16 µg/mL; MBC [3]: 16 µg/mL; MIC [3]: 8 µg/mL; MBC [4]: 8 µg/mL; MIC [4]: 8 µg/mL; MBC [5]: 16 µg/mL; MIC [5]: 16 µg/mL; MBC [6]: 32 µg/mL; MIC [6]: 16 µg/mL; MBC [7]: 16 µg/mL; MIC [7]: 8 µg/mL; MBC [8]: 16 µg/mL; MIC [8]: 16 µg/mL; MBC [9]: 8 µg/mL; MIC [9]: 8 µg/mL; MBC [10]: 32 µg/mL; MIC [10]: 16 µg/mL; MBC [11]: 8 µg/mL; MIC [11]: 8 µg/mL; MBC [12]: 16 µg/mL; MIC [12]: 8 µg/mL; MBC [13]: 8 µg/mL; MIC [13]: 8 µg/mL; MBC [14]: 32 µg/mL; MIC [14]: 16 µg/mL; MBC [15]: 16 µg/mL; MIC [15]: 16 µg/mL; MBC [16]: 8 µg/mL; MIC [16]: 8 µg/mL; MBC [17]: 32 µg/mL; MIC [17]: 32 µg/mL; MBC [18]: 8 µg/mL; MIC [18]: 8 µg/mL; MBC [19]: 16 µg/mL; MIC [19]: 16 µg/mL; MBC [20]: 8 to 32 µg/mL; MIC [20]: 8 to 16 µg/mL; MBC [21]: 8 µg/mL; MIC [21]: 8 µg/mL; MBC [22]: 8 µg/mL; MIC [22]: 8 µg/mL; MBC [23]: 8 µg/mL; MIC [23]: 8 µg/mL; MBC [24]: 32 µg/mL; MIC [24]: 16 µg/mL; MBC [25]: 8 µg/mL; MIC [25]: 8 µg/mL
